In brackets after ≈: the same amount, converted by molar mass.
Tests used:
[1] = test system: T1, B. thetaiotaomicron; assay: microbe, parasite or virus in culture; design: Microbial growth in liquid dilution assay, OD600 relative to DMSO control; conditions: Bacteroides thetaiotaomicron; estimated IC50; read-out: B. thetaiotaomicron, IC50 (µM) estimate
T1 construct: DSM 2079
From the text: (§1) Compound effects on commensal microbes in dilution assay As our objective was to discover compounds that inhibit Chlamydia selectively but spare commensal bacteria, we further tested 15 of our top compounds (c1e–c10e and c1v–c5v) against five bacterial species, Escherichia coli, Lactobacillus reuteri, Enterococcus faecalis, Bacteroides thetaiotaomicron, and Bifidobacterium adolescentis, representing the four dominating phyla of the human gut microbiota. […] Exceptions were c3e and c5e, which at 30 µM were inhibitory to some species. […] Of note, c1e–c3e had little or no effect on the growth of an even larger set of species of gut bacteria, also including Blautia coccoides, Prevotella copri, Prevotella histicola, Bacteroides fragilis, and Dubosiella newyorkensis, when tested in radial diffusion assays, in which the bacteria were exposed to compounds for 24–48 h before measurements of growth inhibition zones (S10B Fig and S5G Data).

[2] = test system: T2, L. reuteri; assay: microbe, parasite or virus in culture; design: Microbial growth in liquid dilution assay, OD600 relative to DMSO control; conditions: Limosilactobacillus reuteri; estimated IC50; read-out: L. reuteri, IC50 (µM) estimate
T2 construct: DSM 20016
From the text: as §1

[3] = test system: T3, E. coli; assay: microbe, parasite or virus in culture; design: Microbial growth in liquid dilution assay, OD600 relative to DMSO control; conditions: Escherichia coli; estimated IC50; read-out: E. coli, IC50 (µM) estimate
T3 construct: DSM 301
From the text: as §1

[4] = test system: T4, B. adolescentis; assay: microbe, parasite or virus in culture; design: Microbial growth in liquid dilution assay, OD600 relative to DMSO control; conditions: Bifidobacterium adolescentis; estimated IC50; read-out: B. adolescentis, IC50 (µM) estimate
T4 construct: DSM 20083
From the text: as §1

[5] = test system: T5, E. faecalis; assay: microbe, parasite or virus in culture; design: Microbial growth in liquid dilution assay, OD600 relative to DMSO control; conditions: Enterococcus faecalis; estimated IC50; read-out: E. faecalis, IC50 (µM) estimate
T5 construct: DSM 20478
From the text: as §1

[6] = test system: T6, CTL2-GFP (C. trachomatis L2/434/Bu, GFP-expressing); assay: microbe, parasite or virus in culture; design: C. trachomatis growth in HeLa, dose-response, mean of bulk GFP fluorescence and imaged total inclusion area; conditions: Chlamydia trachomatis, HeLa, 28.5 h; mean of GFP and inclusion area
T6 construct: L2/434/Bu, GFP-expressing
Method in brief: (§2)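 Infected cells treated with library compounds were read for bulk GFP (chlamydial growth) and resorufin fluorescence (host viability), then fixed, Hoechst-stained and imaged. Inclusion area and number from GFP, plus nuclei counts, served as additional growth and viability proxies; MICs derived as previously described.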

[7] = in vitro; design: Viability of infected HeLa host cells, resazurin conversion, bulk resorufin fluorescence relative to DMSO; conditions: human, hela cells; bulk resorufin, mean of 3
[8] = test system: T6, CTL2-GFP (C. trachomatis L2/434/Bu, GFP-expressing); assay: microbe, parasite or virus in culture; design: species or system HeLa; C. trachomatis growth in HeLa, dose-response, mean of bulk GFP fluorescence and imaged total inclusion area; conditions: Chlamydia trachomatis, 28.5 h; mean of GFP and inclusion area
Method in brief: as §2

[9] = biological target: T7, acyl-modification-free ctFabH (Chlamydia trachomatis, UniProt O84242); assay: intact protein LC/MS; type: biochemical; conditions: covalent acyl-enzyme intermediate; 10 µM protein, 50 µM acyl-CoA, pH 7.0
T7 construct: gene fabH
T7 sequence (O84242 2-327): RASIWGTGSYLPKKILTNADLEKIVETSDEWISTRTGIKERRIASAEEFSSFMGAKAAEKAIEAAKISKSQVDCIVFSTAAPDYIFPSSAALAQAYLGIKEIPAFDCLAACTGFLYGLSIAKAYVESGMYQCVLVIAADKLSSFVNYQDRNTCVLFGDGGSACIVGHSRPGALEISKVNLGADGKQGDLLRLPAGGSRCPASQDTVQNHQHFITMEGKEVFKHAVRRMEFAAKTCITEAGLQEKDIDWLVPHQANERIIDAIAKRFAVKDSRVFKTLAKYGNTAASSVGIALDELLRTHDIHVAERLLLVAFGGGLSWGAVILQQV

[10] = test system: T8, L. crispatus; assay: microbe, parasite or virus in culture; design: Microbial growth in liquid dilution assay, OD600 relative to DMSO control; conditions: Lactobacillus crispatus; estimated IC50; read-out: L. crispatus, IC50 (µM) estimate
T8 construct: DSM 20584

[11] = test system: T9, L. iners; assay: organism not typed; design: Microbial growth in liquid dilution assay, OD600 relative to DMSO control; conditions: estimated IC50; read-out: L. iners, IC50 (µM) estimate
T9 construct: DSM 13335

[12] = test system: T10, G. vaginalis; assay: microbe, parasite or virus in culture; design: Microbial growth in liquid dilution assay, OD600 relative to DMSO control; conditions: Gardnerella vaginalis, read-out: G. vaginalis, IC50 (µM) estimate
T10 construct: DSM 4944

[13] = test system: T6, CTL2-GFP (C. trachomatis L2/434/Bu, GFP-expressing); assay: microbe, parasite or virus in culture; design: Intracellular C. trachomatis growth in HeLa cells, bulk GFP fluorescence relative to DMSO; conditions: Chlamydia trachomatis, HeLa, 28.5 h; bulk GFP
Protocol: (§3) MICs were calculated as described above.

[14] = test system: T11, C. albicans; assay: microbe, parasite or virus in culture; design: Microbial growth in liquid dilution assay, OD600 relative to DMSO control; conditions: Candida albicans, read-out: C. albicans, IC50 (µM) estimate
T11 construct: DSM 1577

[15] = test system: T6, CTL2-GFP (C. trachomatis L2/434/Bu, GFP-expressing); assay: microbe, parasite or virus in culture; design: species or system HeLa; Intracellular C. trachomatis growth in HeLa cells, bulk GFP fluorescence relative to DMSO; conditions: Chlamydia trachomatis, 28.5 h; bulk GFP
Protocol: as §3

[16] = biological target: T12, ctFabH (CTL2 FabH), His6(-fMet)SG-ctFabH (Chlamydia trachomatis, UniProt O84242); assay: continuous UV assay of acetoacetyl-CoA at […] nm; type: biochemical; conditions: 20 µM enzyme, 100 µM acetyl-CoA, 100 µM malonyl-CoA, pH 8.0, 25 °C, 50 mM MgCl2
T12 construct: synthetic gene, modified pRSF-Duet1, E. coli host; partly acylated (mainly pentanoyl) as purified
T12 sequence (O84242 2-327): T7 sequence (O84242 2-327)

Structure (SMILES)	IC50 [1]	IC50 [2]	IC50 [3]	IC50 [4]	IC50 [5]	IC50 [6]	viability at 28.5 h, 0.000416667 µM [7]	viability at 28.5 h, 0.00125 µM [7]	viability at 28.5 h, 0.00375 µM [7]	viability at 28.5 h, 0.0123333 µM [7]	viability at 28.5 h, 0.037 µM [7]	viability at 28.5 h, 0.111 µM [7]	viability at 28.5 h, 0.333 µM [7]	viability at 28.5 h, 1 µM [7]	viability at 28.5 h, 3 µM [7]	viability at 28.5 h, 10 µM [7]	viability at 28.5 h, 30 µM [7]	MIC [8]	IC50 [10]	IC50 [11]	other results
c1c(C2CC2)[nH]c2nc(N3CCCC3)nc(N3CCCC3)c12 [c7e]	> 30 µM	> 30 µM	> 30 µM	> 30 µM	> 30 µM	0.443 µM	88.8%	85.2%	86.7%	86.6%	89.7%	85.9%	89.7%	87.4%	89.6%	86.6%	81.1%	0.669 µM (≈ 0.199 µg/mL)	–	–	–
CC(C)CC(=O)SCCNC(=O)CCNC(=O)[C@H](O)C(C)(C)COP(=O)(O)OP(=O)(O)OC[C@H]1O[C@@H](n2cnc3c(N)ncnc32)[C@H](O)[C@@H]1OP(=O)(O)O [isovaleryl-CoA]	–	–	–	–	–	–	–	–	–	–	–	–	–	–	–	–	–	–	–	–	intact protein LC/MS [9]: 2-methylbutyryl-CoA or isovaleryl-CoA, as expected, generated the corresponding acyl-enzyme intermediates
Cc1noc(NS(=O)(=O)c2ccc(NC(=O)CSc3nc4ccccc4s3)cc2)c1C [c1v]	> 30 µM	> 30 µM	> 30 µM	> 30 µM	> 30 µM	–	–	–	–	–	–	–	–	–	–	–	–	–	> 30 µM	> 30 µM	IC50 [12]: > 30 µM; IC50 [13]: 0.412 µM; IC50 [14]: > 30 µM; MIC [15]: 0.552 µM (≈ 0.262 µg/mL)
O=C(c1ccc(-c2ccc(F)cc2)o1)N1C[C@H]2CC[C@](O)(c3ccc(F)cc3)[C@H]2C1 [c2e]	> 30 µM	> 30 µM	> 30 µM	> 30 µM	> 30 µM	0.0961 µM	90.3%	85.8%	93.6%	89%	91.7%	95.5%	95.7%	93.7%	98.2%	98.8%	116%	0.139 µM (≈ 0.0569 µg/mL)	> 30 µM	> 30 µM	IC50 [12]: > 30 µM; IC50 [14]: > 30 µM
CC(=O)SCCNC(=O)CCNC(=O)[C@H](O)C(C)(C)COP(=O)(O)OP(=O)(O)OC[C@H]1O[C@@H](n2cnc3c(N)ncnc32)[C@H](O)[C@@H]1OP(=O)(O)O [acetyl-CoA]	–	–	–	–	–	–	–	–	–	–	–	–	–	–	–	–	–	–	–	–	continuous UV assay of acetoacetyl-CoA at 302 nm [16]: using acetyl-CoA and malonyl-CoA (instead of malonyl-ACP) as substrates
O=C(N/N=C\c1ccc([N+](=O)[O-])o1)c1nc(-c2ccccc2)cc(-c2ccccc2)n1 [c3e]	10.3 µM	> 30 µM	> 30 µM	18.3 µM	15.4 µM	0.126 µM	92%	92.4%	88.3%	89.2%	86.8%	92.2%	91.6%	90.7%	90%	98.9%	107%	–	> 30 µM	> 30 µM	IC50 [12]: > 30 µM; IC50 [14]: > 30 µM
O=C(Nc1ccc(OC(F)(F)F)cc1)Nc1cc(-c2cccs2)n[nH]1 [c26e]	–	–	–	–	–	2.5 µM	104%	100%	99.3%	100%	96.1%	106%	106%	108%	105%	103%	96.4%	3.98 µM (≈ 1.47 µg/mL)	–	–	–
CCC1C(c2ccc(C)cc2)=CCC(C(=O)NCCCN(C)C)C1C (stereo not shown) [c30e]	–	–	–	–	–	3.07 µM	91.8%	95.1%	91.6%	87.1%	90.5%	97.1%	87.9%	92.4%	89.5%	94.4%	55.5%	8.94 µM (≈ 3.06 µg/mL)	–	–	–

— article PMC12040169 (PLOS Biology, 2025)
